Experimental data as given in PubChem BioAssay AID2060501 (Molecular Pharmacology Branch, DTP, NCI, 2025).

Tested on: 282377-053-R-J1-PDC complex spheroids, viability
Experiment: Anticancer human tumor 282377-053-R-J1-PDC patient-derived colon adenocarcinoma cell line growth inhibition [GQUAD]
Settings: for IC50: curve of first compound; for viability, T/C: stronger effect = lower value
Method in brief: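 Viability of tumor cells grown as complex spheroids with endothelial and stromal cells, exposed to drug combinations. Top concentration at or near clinical Cmax (else 10 microM), diluted in half-log increments.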
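Note: spheroids exposed to compounds for 7 days before readout.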
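Throughout, for viability, T/C: percent of vehicle DMSO control viability with 100% = untreated-like growth.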

## C=CC(=O)N1CCN(c2nc(=O)n(-c3c(C)ccnc3C(C)C)c3nc(-c4c(O)cccc4F)c(F)cc23)C(C)C1 (configuration not stated) + Cc1[nH]c2ccc(F)cc2c1-c1nc2c3cccnc3c3ncccc3c2[nH]1
Second compound 0.0316 µM
  IC50: > 10 µM
Second compound 0.1 µM
  IC50: > 10 µM
Second compound 0.316 µM
  IC50: > 10 µM
Second compound 1 µM
  IC50: > 10 µM
Second compound 3.16 µM
  IC50: 9.67 µM
Second compound 10 µM
  IC50: < 0.0316 µM
Second compound 0.0316 µM, first compound 0.0316 µM
  viability, T/C: 106%
Second compound 0.0316 µM, first compound 0.1 µM
  viability, T/C: 102%
Second compound 0.0316 µM, first compound 0.316 µM
  viability, T/C: 125%
Second compound 0.0316 µM, first compound 1 µM
  viability, T/C: 108%
Second compound 0.0316 µM, first compound 3.16 µM
  viability, T/C: 126%
Second compound 0.0316 µM, first compound 10 µM
  viability, T/C: 80.9%
Second compound 0.1 µM, first compound 0.0316 µM
  viability, T/C: 122%
Second compound 0.1 µM, first compound 0.1 µM
  viability, T/C: 110%
Second compound 0.1 µM, first compound 0.316 µM
  viability, T/C: 98.9%
Second compound 0.1 µM, first compound 1 µM
  viability, T/C: 100%
Second compound 0.1 µM, first compound 3.16 µM
  viability, T/C: 100%
Second compound 0.1 µM, first compound 10 µM
  viability, T/C: 89.9%
Second compound 0.316 µM, first compound 0.0316 µM
  viability, T/C: 109%
Second compound 0.316 µM, first compound 0.1 µM
  viability, T/C: 110%
Second compound 0.316 µM, first compound 0.316 µM
  viability, T/C: 87.1%
Second compound 0.316 µM, first compound 1 µM
  viability, T/C: 122%
Second compound 0.316 µM, first compound 3.16 µM
  viability, T/C: 105%
Second compound 0.316 µM, first compound 10 µM
  viability, T/C: 99.8%
Second compound 1 µM, first compound 0.0316 µM
  viability, T/C: 114%
Second compound 1 µM, first compound 0.1 µM
  viability, T/C: 98.1%
Second compound 1 µM, first compound 0.316 µM
  viability, T/C: 103%
Second compound 1 µM, first compound 1 µM
  viability, T/C: 106%
Second compound 1 µM, first compound 3.16 µM
  viability, T/C: 119%
Second compound 1 µM, first compound 10 µM
  viability, T/C: 103%
Second compound 3.16 µM, first compound 0.0316 µM
  viability, T/C: 82.1%
Second compound 3.16 µM, first compound 0.1 µM
  viability, T/C: 108%
Second compound 3.16 µM, first compound 0.316 µM
  viability, T/C: 71.5%
Second compound 3.16 µM, first compound 1 µM
  viability, T/C: 75.9%
Second compound 3.16 µM, first compound 3.16 µM
  viability, T/C: 98.4%
Second compound 3.16 µM, first compound 10 µM
  viability, T/C: 48.8%
Second compound 10 µM, first compound 0.0316 µM
  viability, T/C: 28.3%
Second compound 10 µM, first compound 0.1 µM
  viability, T/C: 32%
Second compound 10 µM, first compound 0.316 µM
  viability, T/C: 37.6%
Second compound 10 µM, first compound 1 µM
  viability, T/C: 40%
Second compound 10 µM, first compound 3.16 µM
  viability, T/C: 31%
Second compound 10 µM, first compound 10 µM
  viability, T/C: 27.2%
